Usually IC50 stands for the point on the concentration scale where inhibition reaches its midpoint. Lower therefore signals greater potency.

8 molecules from patent US20210317140A1, “Heterocyclic Compounds and Methods of Use” (MEDIVATION TECHNOLOGIES, INC, priority 2013, published 2021) can be followed below.

One experiment addresses T1, PI3Kδ (Homo sapiens, UniProt O00329).
T1 construct: purchased Reaction Biology Corporation
The experiment can be described thus: PI3Kδ kinase assay (HTRF, PIP3 detection). In kind it is biochemical. Particulars: for PI3Kδ @ 0.1 μM (% Inh): 0.1 μM compound; for PI3Kδ @ 0.1 μM (% Inh) / PI3Kδ @ 1 μM (% Inh) / PI3Kδ @ 0.01 μM (% Inh): 10 μM ATP; for PI3Kδ @ 1 μM (% Inh): 1 μM compound; for IC50: 10 dose IC50, 10 μM ATP; for PI3Kδ @ 0.01 μM (% Inh): 0.01 μM compound. In a few lines: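 10-dose HTRF assay; kinase preincubated with compound 10 min at RT, then reacted with 10 μM PIP2 and 10 μM ATP for 30 min at 30 °C in HEPES pH 7.0 buffer. PIP3 product displaces biotin-PIP3 from the Eu/APC complex; signal converted to PIP3 via standard curve, IC50 by nonlinear regression.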
Background: In TR-FRET formats the signal depends on donor and acceptor labels being close together.

Another experiment concerns the target T2, PI3Kα (Homo sapiens, UniProt P42336).
T2 construct: purchased Reaction Biology Corporation
The experiment in a line: PI3Kα isoform profiling (PI3Kδ protocol). The conditions noted are these: 10 dose IC50. It counts as biochemical. From the text:
PI3Kδ assay: The PIP3 product is detected by displacement of biotin-PIP3 from an energy transfer complex consisting of Europium labeled anti-GST monoclonal antibody, a GST-tagged pleckstrin homology (PH) domain, biotinylated PIP3 and Streptavidin-Allophycocyanin (APC). Excitation of Europium in the complex results in an energy transfer to the APC and a fluorescent emission at 665 nm. The PIP3 product formed by PI 3-Kinase(h) activity displaces biotin-PIP3 from the complex resulting in a loss of energy transfer and thus a decrease in signal. This is a 3-step reaction: First, the kinase reaction with PIP2 substrate is carried out in the presence of ATP (10 μM), and the reaction is quenched with stop Solution, and then finally detect by adding Detection Mixture followed by incubation (10 min). Reaction procedure: 1) Prepare substrate in freshly prepared Reaction Buffer. 2) Deliver kinase into the substrate solution and gently mix. 3) Deliver compounds in 100% DMSO (1 μM) into the kinase reaction mixture by Acoustic technology (Echo550; nanoliter range), incubate for 10 min at RT. 4) Deliver ATP into the reaction mixture to initiate the reaction. 5) Incubate for 30 min at 30° C. 6) Quench the reaction with Stop Solution. 7) Add Detection Mixture, and incubate for overnight. 8) Measure HTRF: Ex=320 nm, ratio of Em=615 nm and Em=665 nm. The emission ratio is converted into μM PIP3 production based on PIP3 standard curves. The nonlinear regression to obtain the standard curve and IC50 values are performed using Graphpad Prism software. Assay Buffer: HEPES 50 mM (pH7.0), NaN3 0.02%, BSA 0.01%, Orthovanadate 0.1 mM, 1% DMSO. Detection buffer: HEPES 10 mM (pH7.0), BSA 0.02%, KF 0.16 M, EDTA 4 mM. Substrate: 10 μM PIP2 substrate (PI(4,5)P2).
Compounds of the invention were profiled in a 10 dose IC50 panel against PI3Kα, PI3Kβ, and PI3Kγ kinases, provided by Reaction Biology Corporation, applied to the PI3Kδ protocol provided in Example B1.

The next experiment relates to CD69+B220+ cells. The experiment can be described thus: B cell activation assay (IgD-stimulated splenocytes, CD69+B220+ cells by FACS). It counts as cell-based. Particulars: IgD 3 μg/mL, 4 h; for CD69 @ 100 nM (% Inh): 100 nM compound; for IC50: Splenocyte. In a few lines:
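Mouse splenocytes (female, ~2 months), red cells lysed, at 10^6 cells/mL, pretreated 30 min at 37 °C with 100 nM compound, then anti-IgD 3 μg/mL for 4 h. Read as CD69+B220+ cells as percentage of live B220+ cells by flow cytometry.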
For orientation: A flow cytometer gives signals particle by particle.

T1 sequence (O00329 whole entry): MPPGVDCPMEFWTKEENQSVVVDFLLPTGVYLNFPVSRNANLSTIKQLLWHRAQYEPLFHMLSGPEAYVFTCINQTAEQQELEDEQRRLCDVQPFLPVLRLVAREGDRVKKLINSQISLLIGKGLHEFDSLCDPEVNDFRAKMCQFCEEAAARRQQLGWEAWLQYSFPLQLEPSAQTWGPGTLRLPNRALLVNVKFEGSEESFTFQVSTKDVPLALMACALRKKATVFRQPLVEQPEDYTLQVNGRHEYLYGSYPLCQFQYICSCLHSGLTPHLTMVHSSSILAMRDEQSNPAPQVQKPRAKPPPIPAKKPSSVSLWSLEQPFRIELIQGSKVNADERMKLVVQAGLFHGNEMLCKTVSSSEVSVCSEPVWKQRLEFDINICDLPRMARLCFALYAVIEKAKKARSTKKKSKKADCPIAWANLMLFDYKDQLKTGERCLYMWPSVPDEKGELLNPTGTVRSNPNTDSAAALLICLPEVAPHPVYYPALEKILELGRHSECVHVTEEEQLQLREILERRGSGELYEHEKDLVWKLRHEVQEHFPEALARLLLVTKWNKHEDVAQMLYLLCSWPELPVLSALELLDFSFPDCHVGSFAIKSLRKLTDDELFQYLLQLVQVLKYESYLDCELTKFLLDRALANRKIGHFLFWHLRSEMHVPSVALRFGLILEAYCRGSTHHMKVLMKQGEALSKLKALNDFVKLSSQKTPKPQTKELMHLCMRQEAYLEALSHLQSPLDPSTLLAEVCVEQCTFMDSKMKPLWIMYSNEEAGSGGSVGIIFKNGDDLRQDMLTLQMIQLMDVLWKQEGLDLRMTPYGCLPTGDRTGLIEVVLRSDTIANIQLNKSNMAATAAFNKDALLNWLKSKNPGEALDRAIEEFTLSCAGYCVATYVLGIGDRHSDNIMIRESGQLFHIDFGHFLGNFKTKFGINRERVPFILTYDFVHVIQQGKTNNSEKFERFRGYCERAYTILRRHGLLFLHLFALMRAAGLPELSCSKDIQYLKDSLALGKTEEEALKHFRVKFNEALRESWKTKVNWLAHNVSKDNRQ
T1 sequence (P27986 whole entry partner): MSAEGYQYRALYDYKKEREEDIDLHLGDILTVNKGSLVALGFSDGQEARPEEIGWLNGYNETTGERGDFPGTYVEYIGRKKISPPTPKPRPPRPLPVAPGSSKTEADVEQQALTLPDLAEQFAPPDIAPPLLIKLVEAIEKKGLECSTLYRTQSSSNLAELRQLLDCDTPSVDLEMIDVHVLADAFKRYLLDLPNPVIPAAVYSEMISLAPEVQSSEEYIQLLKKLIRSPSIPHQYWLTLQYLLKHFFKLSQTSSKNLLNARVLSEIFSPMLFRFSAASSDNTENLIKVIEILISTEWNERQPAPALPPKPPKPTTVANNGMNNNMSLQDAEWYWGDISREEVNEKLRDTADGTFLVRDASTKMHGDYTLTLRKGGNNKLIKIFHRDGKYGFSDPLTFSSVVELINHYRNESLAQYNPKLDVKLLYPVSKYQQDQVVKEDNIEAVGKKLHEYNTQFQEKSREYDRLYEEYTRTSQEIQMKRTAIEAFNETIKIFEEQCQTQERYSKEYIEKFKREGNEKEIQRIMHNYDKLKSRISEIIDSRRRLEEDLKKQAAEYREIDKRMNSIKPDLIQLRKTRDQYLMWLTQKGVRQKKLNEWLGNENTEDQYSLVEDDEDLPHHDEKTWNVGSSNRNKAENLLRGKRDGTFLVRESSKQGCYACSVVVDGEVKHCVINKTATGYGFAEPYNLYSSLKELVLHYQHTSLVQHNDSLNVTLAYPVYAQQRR
T2 sequence (P42336 whole entry): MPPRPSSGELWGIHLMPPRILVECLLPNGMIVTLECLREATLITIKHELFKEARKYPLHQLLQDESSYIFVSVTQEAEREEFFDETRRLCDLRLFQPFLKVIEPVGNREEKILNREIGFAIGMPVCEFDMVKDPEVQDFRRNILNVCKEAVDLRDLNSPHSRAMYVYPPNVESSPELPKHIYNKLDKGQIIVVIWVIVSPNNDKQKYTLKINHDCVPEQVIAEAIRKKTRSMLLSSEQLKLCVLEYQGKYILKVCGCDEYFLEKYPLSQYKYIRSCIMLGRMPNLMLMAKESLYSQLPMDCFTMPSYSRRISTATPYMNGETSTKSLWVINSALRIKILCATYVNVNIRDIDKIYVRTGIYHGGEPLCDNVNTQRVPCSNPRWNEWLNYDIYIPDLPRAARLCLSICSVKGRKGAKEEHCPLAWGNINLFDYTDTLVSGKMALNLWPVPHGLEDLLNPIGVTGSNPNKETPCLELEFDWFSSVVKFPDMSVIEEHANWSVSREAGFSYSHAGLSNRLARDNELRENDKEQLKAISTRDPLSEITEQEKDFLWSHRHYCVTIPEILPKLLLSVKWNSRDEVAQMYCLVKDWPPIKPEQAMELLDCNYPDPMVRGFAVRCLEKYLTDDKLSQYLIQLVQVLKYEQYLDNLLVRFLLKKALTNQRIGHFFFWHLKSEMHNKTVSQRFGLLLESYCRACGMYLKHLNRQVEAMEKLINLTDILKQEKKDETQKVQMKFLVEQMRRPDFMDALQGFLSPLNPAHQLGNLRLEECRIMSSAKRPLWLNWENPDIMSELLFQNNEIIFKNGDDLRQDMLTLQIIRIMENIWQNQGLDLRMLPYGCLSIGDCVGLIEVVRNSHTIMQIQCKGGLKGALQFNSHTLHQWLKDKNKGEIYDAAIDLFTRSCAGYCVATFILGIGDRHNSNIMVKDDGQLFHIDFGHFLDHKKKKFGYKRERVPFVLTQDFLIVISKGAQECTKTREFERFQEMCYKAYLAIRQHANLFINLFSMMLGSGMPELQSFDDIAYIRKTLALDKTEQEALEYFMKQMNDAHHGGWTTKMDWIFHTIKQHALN
T2 sequence (P27986 whole entry partner): as the sequence (P27986 whole entry partner) above

For the molecule `Nc1ncnc2c1c(-c1cc(O)c(F)c(F)c1)nn2C1Cc2ccccc2C1` [Compound No. 81, 5-[4-amino-1-(2,3-dihydro-1H-inden-2-yl)-1H-pyrazolo[3,4-d]pyrimidin-3-yl]-2,3-difluorophenol], on PI3Kδ, the “PI3Kδ @ 0.1 μM (% Inh)” value is recorded as 87.14 % Inh, the “PI3Kδ @ 1 μM (% Inh)” value is on record as 91.62 % Inh and the IC50 came out at 3.5 nM. At PI3Kα, the IC50 amounted to 21.1 nM. Moreover, in the experiment with CD69+B220+ cells (mouse splenocytes), the “CD69 @ 100 nM (% Inh)” value is 88.08 ± 32.59 (n = 5) % Inh. Half-maximal inhibition in the experiment with CD69+B220+ cells (Mus musculus) (IC50) was put at 106 ± 50.8 nM.
`Nc1ncnc2c1c(-c1cc(F)c3c(c1)NCCO3)nn2C1Cc2ccccc2C1` [Compound No. 84, 1-(2,3-dihydro-1H-inden-2-yl)-3-(8-fluoro-3,4-dihydro-2H-1,4-benzoxazin-6-yl)-1H-pyrazolo[3,4-d]pyrimidin-4-amine]: on PI3Kδ, the “PI3Kδ @ 0.1 μM (% Inh)” value amounted to 53.06 % Inh, the “PI3Kδ @ 1 μM (% Inh)” value came out at 88.36 % Inh and the IC50 amounted to 34.8 nM. On PI3Kα, this molecule had an IC50 of 638 nM. Besides, in the experiment on CD69+B220+ cells (mouse splenocytes), the “CD69 @ 100 nM (% Inh)” value was 47.61 ± 24.72 (n = 15) % Inh. This molecule also displayed an IC50 in the experiment with CD69+B220+ cells (Mus musculus) of 154 nM.
As to `Nc1ncnc2c1c(-c1ccc(Cl)c(O)c1)cn2C1Cc2ccccc2C1` [Compound No. 93, 5-[4-amino-7-(2,3-dihydro-1H-inden-2-yl)-7H-pyrrolo[2,3-d]pyrimidin-5-yl]-2-chlorophenol], on PI3Kδ, the “PI3Kδ @ 0.01 μM (% Inh)” value is recorded as 24.46 % Inh, the “PI3Kδ @ 0.1 μM (% Inh)” value is on record as 59.57 % Inh and the IC50 turned out to be 21.2 nM. In addition, 50.9 nM corresponded to half-maximal inhibition on PI3Kα (IC50). In addition, the “CD69 @ 100 nM (% Inh)” value with CD69+B220+ cells (mouse splenocytes) is reported as −19.68 ± 39.78 (n = 5) % Inh.
On the same counts, the results for `Nc1ncnc2c1c(-c1ccc(Cl)c(O)c1F)nn2C1Cc2ccccc2C1` [Compound No. 100, 3-[4-amino-1-(2,3-dihydro-1H-inden-2-yl)-1H-pyrazolo[3,4-d]pyrimidin-3-yl]-6-chloro-2-fluorophenol] are 29.01 % Inh, 71.71 % Inh, 44.7 nM, 70.1 nM and 27.39 ± 22.07 (n = 5) % Inh.
On to `Nc1ncnc2c1c(-c1cc(O)c(F)c(F)c1)cn2C1Cc2ccccc2C1` [Compound No. 101, 5-[4-amino-7-(2,3-dihydro-1H-inden-2-yl)-7H-pyrrolo[2,3-d]pyrimidin-5-yl]-2,3-difluorophenol], for which, at PI3Kδ, the “PI3Kδ @ 0.01 μM (% Inh)” value is 26.61 % Inh, the “PI3Kδ @ 0.1 μM (% Inh)” value stood at 62.53 % Inh and inhibition was half-maximal at 62.1 nM (IC50). The IC50 against PI3Kα was 120 nM. In addition, the “CD69 @ 100 nM (% Inh)” value in the experiment with CD69+B220+ cells (mouse splenocytes) is given as −12.35 ± 33.92 (n = 5) % Inh.
`Nc1ncnc2c1c(-c1cc(O)c(F)c(C(F)(F)F)c1)nn2C1Cc2ccccc2C1` [Compound No. 102, 5-[4-amino-1-(2,3-dihydro-1H-inden-2-yl)-1H-pyrazolo[3,4-d]pyrimidin-3-yl]-2-fluoro-3-(trifluoromethyl)phenol]: on PI3Kδ, the “PI3Kδ @ 0.1 μM (% Inh)” value came out at 93.99 % Inh, the “PI3Kδ @ 1 μM (% Inh)” value worked out at 100.0 % Inh and the IC50 came out at 2.5 nM. For the same molecule, the IC50 against PI3Kα was determined as 21.1 nM. In the experiment on CD69+B220+ cells (mouse splenocytes), the “CD69 @ 100 nM (% Inh)” value is recorded as 81.06 ± 20.76 (n = 7) % Inh and the IC50 is 191 ± 120 nM.
On to `Nc1ncnc2c1c(-c1cc(O)c(Cl)c(Cl)c1)cn2C1Cc2ccccc2C1` [Compound No. 107, 5-[4-amino-7-(2,3-dihydro-1H-inden-2-yl)-7H-pyrrolo[2,3-d]pyrimidin-5-yl]-2,3-dichlorophenol], for which the IC50 is 12.9 nM at PI3Kδ and 56.5 nM against PI3Kα. In the experiment on CD69+B220+ cells (mouse splenocytes), the “CD69 @ 100 nM (% Inh)” value is −0.20 ± 16.10 (n = 3) % Inh.
For the molecule `Nc1ncnc2c1c(-c1cc(O)cc(F)c1)nn2C1Cc2ccccc2C1` [compound 3, 3-(4-amino-1-(2,3-dihydro-1H-inden-2-yl)-1H-pyrazolo[3,4-d]pyrimidin-3-yl)-5-fluorophenol], the IC50 against PI3Kδ amounted to 7.9 nM; against PI3Kα, 20.1 nM; in the experiment on CD69+B220+ cells (Mus musculus), 183 ± 172 nM. Also, the “CD69 @ 100 nM (% Inh)” value in the experiment with CD69+B220+ cells (mouse splenocytes) was 77.66 ± 22.65 (n = 6) % Inh.
